Source: the NIST ThermoML archive (doi:10.1021/je200195q)
Numbers after ± are expanded uncertainties.

Assay: activity coefficient (dimensionless); of the first substance listed, at infinite dilution; xn = mol fraction of the nth substance listed
Conditions: 101 kPa, Liquid, Chromatography, x1 = 0

CCCO [propan-1-ol] + CCCCCCCCCCn1cc[n+](CCCCCCCCCC)c1C.O=S(=O)([N-]S(=O)(=O)C(F)(F)F)C(F)(F)F
activity coefficient (323.1 K): 1.31 ± 0.085 | activity coefficient (333.15 K): 1.16 ± 0.074 | activity coefficient (343.15 K): 1.06 ± 0.067

C[N+](=O)[O-] [nitromethane] + CCCCCC[n+]1ccn(C)c1.FC(F)(F)C(F)(F)[P-](F)(F)(F)(C(F)(F)C(F)(F)F)C(F)(F)C(F)(F)F
activity coefficient (312.8 K): 0.452 ± 0.036 | activity coefficient (332.85 K): 0.438 ± 0.035 | activity coefficient (354.65 K): 0.41 ± 0.034

CCCCCCCCCC [decane] + CCCCn1cc[n+](C)c1.O=S(=O)([N-]S(=O)(=O)C(F)(F)C(F)(F)F)C(F)(F)C(F)(F)F
activity coefficient (322.55 K): 37.4 ± 2.6 | activity coefficient (342.75 K): 33.3 ± 2.3 | activity coefficient (362.65 K): 28 ± 1.9

CCCCCCCCCCCCCC [tetradecane] + CCCCn1cc[n+](C)c1.O=S(=O)([N-]S(=O)(=O)C(F)(F)C(F)(F)F)C(F)(F)C(F)(F)F
activity coefficient (322.55 K): 153 ± 11 | activity coefficient (342.75 K): 113 ± 7.7 | activity coefficient (362.65 K): 91.5 ± 6.3

ClC(Cl)Cl [trichloromethane] + CCCCn1cc[n+](C)c1.O=S(=O)([N-]S(=O)(=O)C(F)(F)C(F)(F)F)C(F)(F)C(F)(F)F
activity coefficient (322.55 K): 0.613 ± 0.043 | activity coefficient (342.75 K): 0.74 ± 0.049 | activity coefficient (362.65 K): 0.79 ± 0.051

CCc1ccccc1 [ethylbenzene] + CCCCCCCCCCn1cc[n+](CCCCCCCCCC)c1C.O=S(=O)([N-]S(=O)(=O)C(F)(F)F)C(F)(F)F
activity coefficient (323.1 K): 0.652 ± 0.045 | activity coefficient (333.15 K): 0.662 ± 0.045 | activity coefficient (343.15 K): 0.689 ± 0.046

C=O [methanal] + CCCCCCCCCCn1cc[n+](CCCCCCCCCC)c1C.O=S(=O)([N-]S(=O)(=O)C(F)(F)F)C(F)(F)F
activity coefficient (323.1 K): 0.074 ± 0.03 | activity coefficient (333.15 K): 0.08 ± 0.03 | activity coefficient (343.15 K): 0.085 ± 0.03

CCC=O [propanal] + CCCCn1cc[n+](C)c1.O=S(=O)([N-]S(=O)(=O)C(F)(F)C(F)(F)F)C(F)(F)C(F)(F)F
activity coefficient (322.55 K): 0.539 ± 0.039 | activity coefficient (342.75 K): 0.533 ± 0.039 | activity coefficient (362.65 K): 0.522 ± 0.039

C1CCCCCC1 [cycloheptane] + CCCCCCCCCCn1cc[n+](CCCCCCCCCC)c1C.O=S(=O)([N-]S(=O)(=O)C(F)(F)F)C(F)(F)F
activity coefficient (323.1 K): 3.17 ± 0.22 | activity coefficient (333.15 K): 4.46 ± 0.3 | activity coefficient (343.15 K): 6.09 ± 0.41

CCC(=O)CC [pentan-3-one] + CCCCCCCCCCn1cc[n+](CCCCCCCCCC)c1C.O=S(=O)([N-]S(=O)(=O)C(F)(F)F)C(F)(F)F
activity coefficient (323.1 K): 0.37 ± 0.03 | activity coefficient (333.15 K): 0.378 ± 0.033 | activity coefficient (343.15 K): 0.386 ± 0.033

CCC(C)=O [butanone] + CCCCCCCCCCn1cc[n+](CCCCCCCCCC)c1C.O=S(=O)([N-]S(=O)(=O)C(F)(F)F)C(F)(F)F
activity coefficient (323.1 K): 0.318 ± 0.031 | activity coefficient (333.15 K): 0.292 ± 0.031 | activity coefficient (343.15 K): 0.264 ± 0.03

CC#N [acetonitrile] + CCCCCCCCCCn1cc[n+](CCCCCCCCCC)c1C.O=S(=O)([N-]S(=O)(=O)C(F)(F)F)C(F)(F)F
activity coefficient (323.1 K): 0.47 ± 0.037 | activity coefficient (333.15 K): 0.453 ± 0.036 | activity coefficient (343.15 K): 0.44 ± 0.035

c1ccsc1 [thiophene] + CCCCCCCCCCn1cc[n+](CCCCCCCCCC)c1C.O=S(=O)([N-]S(=O)(=O)C(F)(F)F)C(F)(F)F
activity coefficient (323.1 K): 0.422 ± 0.035 | activity coefficient (333.15 K): 0.423 ± 0.035 | activity coefficient (343.15 K): 0.424 ± 0.035

CC(C)OC(C)C [diisopropyl ether] + CCCCCC[n+]1ccn(C)c1.FC(F)(F)C(F)(F)[P-](F)(F)(F)(C(F)(F)C(F)(F)F)C(F)(F)C(F)(F)F
activity coefficient (312.8 K): 1.59 ± 0.1 | activity coefficient (332.85 K): 1.7 ± 0.11 | activity coefficient (354.65 K): 1.72 ± 0.12

CCCCCC [hexane] + CCCCn1cc[n+](C)c1.O=S(=O)([N-]S(=O)(=O)C(F)(F)C(F)(F)F)C(F)(F)C(F)(F)F
activity coefficient (322.55 K): 9.49 ± 0.65 | activity coefficient (342.75 K): 8.8 ± 0.6 | activity coefficient (362.65 K): 8.43 ± 0.57

OCC(F)(F)F [2,2,2-trifluoroethanol] + CCCCCC[n+]1ccn(C)c1.FC(F)(F)C(F)(F)[P-](F)(F)(F)(C(F)(F)C(F)(F)F)C(F)(F)C(F)(F)F
activity coefficient (312.8 K): 0.987 ± 0.062 | activity coefficient (332.85 K): 0.891 ± 0.057 | activity coefficient (354.65 K): 0.728 ± 0.048

CCCCCCCCCCC [undecane] + CCCCn1cc[n+](C)c1.O=S(=O)([N-]S(=O)(=O)C(F)(F)C(F)(F)F)C(F)(F)C(F)(F)F
activity coefficient (322.55 K): 57.3 ± 3.9 | activity coefficient (342.75 K): 45.9 ± 3.1 | activity coefficient (362.65 K): 37.8 ± 2.6

Cc1cccc(C)c1 [1,3-dimethylbenzene] + CCCCCC[n+]1ccn(C)c1.FC(F)(F)C(F)(F)[P-](F)(F)(F)(C(F)(F)C(F)(F)F)C(F)(F)C(F)(F)F
activity coefficient (312.8 K): 0.939 ± 0.059 | activity coefficient (332.85 K): 0.997 ± 0.062 | activity coefficient (354.65 K): 1.01 ± 0.063

C[N+](=O)[O-] [nitromethane] + CCn1cc[n+](C)c1.CS(=O)(=O)[O-]
activity coefficient (312.55 K): 2.06 ± 0.14 | activity coefficient (322.45 K): 1.26 ± 0.081 | activity coefficient (332.45 K): 0.801 ± 0.052

C1COCCO1 [1,4-dioxane] + CCn1cc[n+](C)c1.CS(=O)(=O)[O-]
activity coefficient (312.55 K): 2.67 ± 0.18 | activity coefficient (322.45 K): 2.67 ± 0.18 | activity coefficient (332.45 K): 2.66 ± 0.18

CCCCCCC [heptane] + CCCCCC[n+]1ccn(C)c1.FC(F)(F)C(F)(F)[P-](F)(F)(F)(C(F)(F)C(F)(F)F)C(F)(F)C(F)(F)F
activity coefficient (312.8 K): 8.84 ± 0.6 | activity coefficient (332.85 K): 7.73 ± 0.53 | activity coefficient (354.65 K): 6.62 ± 0.45
